Measurements as given in patent publication US12091425B2 (AMGEN INC., priority 2016, dated 2024).

Experiments:
[1] = system: OPM-2 human multiple myeloma cell line; assay: Cell Viability Assay (OPM-2 10 FBS); assay type: cell-based; details: OPM-2 cells, CellTiter-Glo
Protocol: Cell Viability Assay (OPM-2 10 FBS)
Cells were seeded into 384-well plates at 3000 cells/well density in complete growth medium containing 10% FBS, and incubated for 16 h with serially diluted test compounds in a 37° C. incubator with 5% CO2. Cell viability was tested using CellTiter-Glo® assay (Promega, Madison, WI) according to the manufacturer recommendations. Luminescence was determined using an EnVision® Multilabel plate reader 25 min after the addition of detection reagent. IC50 values were then calculated with Xlfit using a logistical 4-parameter fit model in GraphPad Prism (GraphPad Software, San Diego, CA) or in Genedata Screener® (Genedata, Basel, Switzerland).

[2] = molecular target: T1, Mcl-1/Bim interaction, recombinant human Mcl-1 (171-327) (Homo sapiens, UniProt Q07820); assay: Cell free Mcl-1: Bim Affinity Assay (Mcl-1 HTRF); assay type: binding
T1 construct: made in house
How it was run: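 Compounds were mixed with the protein and a biotinylated Bim peptide spanning human residues 51-76. Plates were left overnight, then TR-FRET signal was measured. A four-parameter sigmoidal model applied to duplicate competition data gave IC50.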

[3] = Homo sapiens, OPM-2, 16 h, 16 h
[4] = cell free Mcl-1:Bim TR-FRET, recombinant human Mcl-1 (171-327)
[5] = TR-FRET, 0.1 nM Mcl-1 (171-327), 0.05 nM biotin-Bim (51-76)
[6] = Homo sapiens, OPM-2, 16 h, 16 h incubation

T1 sequence (Q07820 171-327): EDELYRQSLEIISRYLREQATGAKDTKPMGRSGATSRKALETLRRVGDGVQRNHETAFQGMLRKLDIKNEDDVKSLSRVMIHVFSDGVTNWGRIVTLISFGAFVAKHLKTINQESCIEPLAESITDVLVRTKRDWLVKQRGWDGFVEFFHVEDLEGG

IC50 [1, 3] | IC50 [2, 4] | IC50 [2, 5] | SMILES | other results
7000 nM | 9.46 nM | – | O=C1NS(=O)(=O)CCOC2CCOC(C2)C2CCC2CN2CC3(CCCc4cc(Cl)ccc43)COc3ccc1cc32 (single isomer, unassigned) [Example 878] | –
– | – | 0.356 nM | C[C@@H]1C[C@@H](C)/C=C/[C@H](OCCN2CCOCC2)[C@@H]2CC[C@H]2CN2C[C@@]3(CCCc4cc(Cl)ccc43)COc3ccc(cc32)C(=O)NS1(=O)=O [Example 1018, (1S,3′R,6′R,7′S,8′E,10′R,12′R)-6-chloro-10′,12′-dimethyl-7′-(2-(4-morpholinyl)ethoxy)-3,4-dihydro-2H,15′H-spiro[naphthalene-1,22′-[20]oxa[13]thia[1,14]diazatetracyclo[14.7.2.0^3,6.0^19,24]pentacosa [8,16,18,24]tetraen]-15′-one 13′,13′-dioxide] | IC50 [1, 6]: 285 nM
2330 nM | 1.81 nM | – | O=C1NS(=O)(=O)N(CC2CCCO2)C/C=C/[C@H](O)[C@@H]2CC[C@H]2CN2C[C@@]3(CCCc4cc(Cl)ccc43)COc3ccc1cc32 (mixture of isomers) [Example 691] | –
21300 nM | 1.99 nM | – | CO[C@@H]1/C=C/[C@H](O)[C@@H]2CC[C@H]2CN2C[C@@]3(CCCc4cc(Cl)ccc43)COc3ccc(cc32)C(=O)NS(=O)(=O)CC1 [Example 536, (1S,3′R,6′R,7′S,8′E,10′S)-6-chloro-7′-hydroxy-10′-methoxy-3,4-dihydro-2H,15′H-spiro[naphthalene-1,22′-[20]oxa[13]thia[1,14]diazatetracyclo[14.7.2.0^3,6.0^19,24]pentacosa [8,16,18,24]tetraen]-15′-one 13′,13′-dioxide] | –
– | – | 0.851 nM | CC[C@@H]1CC/C=C/[C@H](OCCS(=O)(=O)N(C)C)[C@@H]2CC[C@H]2CN2C[C@@]3(CCCc4cc(Cl)ccc43)COc3ccc(cc32)C(=O)NS1(=O)=O [Example 989, 2-(((1S,3′R,6′R,7′S,8′E,12′R)-6-chloro-12′-ethyl-13′,13′-dioxido-15′-oxo-3,4-dihydro-2H-spiro[naphthalene-1,22′-[20]oxa[13]thia[1,14]diazatetracyclo[14.7.2.0^3,6.0^19,24]pentacosa [8,16,18,24]tetraen]-7′-yl)oxy)-N,N-dimethylethanesulfonamide] | IC50 [1, 6]: 330 nM
– | – | 6.09 nM | C[C@@H]1[C@@H](C)/C=C/[C@H](O)[C@@H]2CC[C@H]2CN2C[C@@]3(CCCc4cc(Cl)ccc43)COc3ccc(cc32)C(=O)NS(=O)(=O)[C@H]1C (single isomer, unassigned) [Example 1043] | IC50 [1, 6]: 6740 nM
3110 nM | 0.312 nM | – | CC1CC=CC(O)C2CCC2CN2CC3(CCCc4cc(Cl)ccc43)COc3ccc(cc32)C(=O)NS(=O)(=O)C1CC(F)(F)F (single isomer, unassigned) [Example 663] | –
– | – | 0.493 nM | COC[C@H]1C/C=C/[C@H](O)[C@@H]2CC[C@H]2CN2C[C@@]3(CCCc4cc(Cl)ccc43)COc3ccc(cc32)C(=O)NS(=O)(=O)C1 [Example 1087, (1S,3′R,6′R,7′S,8′E,11′R)-6-chloro-7′-hydroxy-11′-(methoxymethyl)-3,4-dihydro-2H,15′H-spiro [naphthalene-1,22′-[20]oxa[13]thia[1,14]diazatetracyclo[14.7.2.0^3,6.0^19,24]pentacosa [8,16,18,24]tetraen]-15′-one 13′,13′-dioxide] | IC50 [1, 6]: 692 nM
12300 nM | – | – | CC[C@@H]1CCCCC(=O)[C@@H]2CC[C@H]2CN2C[C@@]3(CCCc4cc(Cl)ccc43)COc3ccc(cc32)C(=O)NS1(=O)=O [Example 886, (1S,3′R,6′R,12′R)-6-chloro-12′-ethyl-3,4-dihydro-2H,7′H,15′H-spiro[naphthalene-1,22′-[20]oxa[13]thia[1,14]diazatetracyclo[14.7.2.0^3,6.0^19,24]pentacosa [16,18,24]triene]-7′,15′-dione 13′,13′-dioxide] | –
– | – | 10.4 nM | CC[C@@H]1CC/C=C/[C@H](OCc2ccccn2)[C@@H]2CC[C@H]2CN2C[C@@]3(CCCc4cc(Cl)ccc43)COc3ccc(cc32)C(=O)NS1(=O)=O [Example 976, (1S,3′R,6′R,7′S,8′E,12′R)-6-chloro-12′-ethyl-7′-(2-pyridinylmethoxy)-3,4-dihydro-2H,15′H-spiro[naphthalene-1,22′-[20]oxa[13]thia[1,14]diazatetracyclo[14.7.2.0^3,6.0^19,24]pentacosa [8,16,18,24]tetraen]-15′-one 13′,13′-dioxide] | –

Further lines, the compound ahead of its results:

SMILES | IC50 [1, 3] | IC50 [2, 4] | IC50 [2, 5] | other results
COCC[C@H]1[C@@H](C)C/C=C/[C@H](OC)[C@@H]2CC[C@H]2CN2C[C@@]3(CCCc4cc(Cl)ccc43)COc3ccc(cc32)C(=O)NS1(=O)=O (single isomer, unassigned) [Example 396] | – | – | 0.384 nM | IC50 ([1]; 16 h): 186 nM
C[C@H]1/C=C/[C@H](O)[C@@H]2CC[C@H]2CN2C[C@@]3(CCCc4cc(Cl)ccc43)COc3ccc(cc32)C(=O)NS(=O)(=O)[C@@H]2COC[C@H]21 (single isomer, unassigned) [Example 1058] | – | – | 0.249 nM | IC50 ([1]; 16 h incubation): 456 nM
CN(C)C(=O)C[C@@H]1CC/C=C/[C@H](O)[C@@H]2CC[C@H]2CN2C[C@@]3(CCCc4cc(Cl)ccc43)COc3ccc(cc32)C(=O)NS1(=O)=O (single isomer, unassigned) [Example 621] | – | 0.225 nM | – | IC50 ([1]; 16 h): 3670 nM
CN(C)S(=O)(=O)N1CCN(C(=O)CC[C@@H]2CC/C=C/[C@H](O)[C@@H]3CC[C@H]3CN3C[C@@]4(CCCc5cc(Cl)ccc54)COc4ccc(cc43)C(=O)NS2(=O)=O)CC1 (single isomer, unassigned) [Example 626] | – | 0.305 nM | – | IC50 ([1]; 16 h): 2200 nM
C[C@@H]1CC/C=C/[C@H](OC[C@H](O)CO)[C@@H]2CC[C@H]2CN2C[C@@]3(CCCc4cc(Cl)ccc43)COc3ccc(cc32)C(=O)NS1(=O)=O (mixture of isomers) [Example 415] | 2640 nM | – | 0.276 nM | –
O=C1NS(=O)(=O)CCC/C=C/[C@@H](OCCO)[C@@H]2CC[C@H]2CN2C[C@@]3(CCCc4cc(Cl)ccc43)COc3ccc1cc32 [Example 220, (1S,3′R,6′R,7′R,8′E)-6-chloro-7′-(2-hydroxyethoxy)-3,4-dihydro-2H,15′H-spiro[naphthalene-1,22′-[20]oxa[13]thia[1,14]diazatetracyclo[14.7.2.0^3,6.0^19,24]pentacosa [8,16,18,24]tetraen]-15′-one 13′,13′-dioxide] | 2660 nM | – | 1.99 nM | –
C[C@@H]1[C@@H](C)C/C=C/[C@H](OCC(=O)N2CCC(O)CC2)[C@@H]2CC[C@H]2CN2C[C@@]3(CCCc4cc(Cl)ccc43)COc3ccc(cc32)C(=O)NS1(=O)=O [Example 312, (1S,3′R,6′R,7′S,8′E,11′S,12′R)-6-chloro-7′-(2-(4-hydroxy-1-piperidinyl)-2-oxoethoxy)-11′,12′-dimethyl-3,4-dihydro-2H,15′H-spiro[naphthalene-1,22′-[20]oxa[13]thia[1,14]diazatetracyclo[14.7.2.0^3,6.0^19,24]pentacosa [8,16,18,24]tetraen]-15′-one 13′,13′-dioxide] | 1000 nM | – | 0.153 nM | –
CCOC(=O)CO[C@H]1/C=C/CC[C@@H](CC(=O)OC)S(=O)(=O)NC(=O)c2ccc3c(c2)N(C[C@@H]2CC[C@H]21)C[C@@]1(CCCc2cc(Cl)ccc21)CO3 [Example 623] | – | 0.642 nM | – | IC50 ([1]; 16 h): 483 nM
CO[C@H]1/C=C/CC[C@@H](CO)S(=O)(=O)NC(=O)c2ccc3c(c2)N(C[C@@H]2CC[C@H]21)C[C@@]1(CCCc2cc(Cl)ccc21)CO3 (single isomer, unassigned) [Example 446] | – | – | 0.493 nM | IC50 ([1]; 16 h): 419 nM
CC[C@@H]1CC/C=C/[C@H](OCC(=O)N2CCOCC2)[C@@H]2CC[C@H]2CN2C[C@@]3(CCCc4cc(Cl)ccc43)COc3ccc(cc32)C(=O)NS1(=O)=O [Example 979, (1S,3′R,6′R,7′S,8′E,12′R)-6-chloro-12′-ethyl-7′-(2-(4-morpholinyl)-2-oxoethoxy)-3,4-dihydro-2H,15′H-spiro[naphthalene-1,22′-[20]oxa[13]thia[1,14]diazatetracyclo[14.7.2.0^3,6.0^19,24]pentacosa [8,16,18,24]tetraen]-15′-one 13′,13′-dioxide] | – | – | – | IC50 [1, 6]: 16900 nM
CC[C@@H]1CC/C=C/[C@H](OCCC(=O)OC)[C@@H]2CC[C@H]2CN2C[C@@]3(CCCc4cc(Cl)ccc43)COc3ccc(cc32)C(=O)NS1(=O)=O [Example 1007] | – | – | – | IC50 [1, 6]: 74 nM
CO[C@H]1C/C=C/[C@H](C)[C@@H](C)S(=O)(=O)NC(=O)c2ccc3c(c2)N(C[C@@H]2CC[C@H]21)C[C@@]1(CCCc2cc(Cl)ccc21)CO3 [Example 17, (1S,3′R,6′R,7′S,9′E,11′S,12′R)-6-chloro-7′-methoxy-11′,12′-dimethyl-3,4-dihydro-2H,15′H-spiro[naphthalene-1,22′-[20]oxa[13]thia[1,14]diazatetracyclo[14.7.2.0^3,6.0^19,24]pentacosa[9,16,18,24]tetraen]-15′-one 13′,13′-dioxide] | – | – | – | IC50 ([1]; Homo sapiens, 16 h): 7920 nM
O=C1NS(=O)(=O)CC[C@H](CO)/C=C/[C@H](O)[C@@H]2CC[C@H]2CN2C[C@@]3(CCCc4cc(Cl)ccc43)COc3ccc1cc32 [Example 201, (1S,3′R,6′R,7′S,8′E,10′S)-6-chloro-7′-hydroxy-10′-(hydroxymethyl)-3,4-dihydro-2H,15′H-spiro[naphthalene-1,22′-[20]oxa[13]thia[1,14]diazatetracyclo[14.7.2.0^3,6.0^19,24]pentacosa [8,16,18,24]tetraen]-15′-one 13′,13′-dioxide] | – | – | 2.69 nM | –
